# Test results from patent publication US20080286315A1, “Methionine Enkephalin as an Adjuvant for Vaccine Immunizations” (Penta Biotech, Inc., priority 2007, published 2008).
# Experiments:
# Format in all cases: cell-based, IRM-2 mice
# immature dendritic cells = assay: Dendritic cell density and proliferation with different concentrations of MEK (cell counting / MTT assay); conditions: for Cell Density: 9 days culture with IL-4 and GM-CSF; for Increase Percent: control = 100.0
# Description: (§1) Immature dendritic cells were isolated from spleens of IRM-2 mice with lymphocyte separation solution. The method used was adapted from a method of isolating lymphocytes using a centrifugation technique. First, diluted defibrinated blood was layered on a solution of sodium metrizoate and Dextran or Ficoll® and centrifuged at low speeds for 30 minutes. […] Mononuclear cells (lymphocytes and monocytes) and platelets are contained in the banded plasma-lymphocyte separation medium interphase due to their density. Erythrocytes and granulocytes migrate through the gradient and form a pellet to the bottom of the tube. Lymphocytes were recovered by aspirating the plasma layer and removing the cells. After proper washing and treatment, cells were suspended in RPMI-1640 containing 10% FCS and incubated in a CO2-incubator (37° C., 5% CO2) for 2 hours before use.
# (§2) The immature dendritic cells were divided into 6 groups and were centrifuged to remove the supernatants. RPMI-1640 containing 10 ng/ml IL-4, 100 ng/ml GM-CSF, 10% FCS, and MEK at either 0 ng/ml, 7.5 ng/ml, 15 ng/ml, 30 ng/ml, 60 ng/ml or 120 ng/ml was then added to the cells. The final cell density was 2×10^5 cells/ml. Cells were returned to the CO2-incubator and the media were replaced in half volumes every other day starting on the 3rd day. Cells were allowed to grow for 9 days and thereafter cell numbers were counted with an inverted phase-contrasted microscope. The group of cells having the highest density was regarded as having the most optimum conditions in terms of concentration for cytokines. Cell density was determined using the MTT [3-(4,5-Dimethylthiazol-2-yl)-2,5-Diphenyltetrazolium Bromide] assay, using methods known in the art. MEK facilitated the growth and multiplication of dendritic cells in a concentration dependent fashion. The effects were greatest with a MEK concentration at around 60 ng/ml and then decreased thereafter as MEK concentration increased.
# dendritic cells [1] = assay: Dendritic cell surface marker expression (FITC antibodies to CD11c and CD80, flow cytometry); conditions: day 9
# Description: as §1, §2
# Cells isolated and cultured as described above were processed on the 9th day with the addition of FITC labeled antibodies to CD11c and CD80. CD11c is the most specific cell surface marker for mature dendritic cells. CD80 is another marker that is expressed on mature dendritic cells. Stained cells were analyzed with a flow cell cytometer and cells expressing fluorescence markers were regarded as positive. The positive rates were analyzed and calculated using Bios Consort 30 software.
# cultured dendritic cells = assay: IL-12 levels in supernatants of cultured dendritic cells (IL-12 ELISA); conditions: supernatant day 9
# Description: as §1, §2
# To further characterize the cultured cells, cell culture supernatants were collected on the 9th day of incubation and were assayed according to the procedures defined in the IL-12 ELISA Assay Kit obtained from eBioscience, USA. IL-12 is a cytokine known to be secreted by mature dendritic cells.
# dendritic cells [2] = assay: Micrographs of dendritic cells (400x); conditions: 60 ng/ml MEK; with IL-4 and GM-CSF
# From the text: FIGS. 1 and 2 show micrographs of dendritic cells magnified 400×. Cells were isolated and cultured as described above.
structure (smiles),measurement,setting,value
"CSCC[C@H](NC(=O)[C@@H](Cc1ccccc1)NC(=O)CNC(=O)CNC(=O)[C@H](N)Cc1ccc(O)cc1)C(=O)O [MEK, methionine enkephalin]",Cell Density,"immature dendritic cells; MEK 7.5 ng/ml, start 2x10^5 cells/ml",2.2 ± 0.1 10^5/ml
same,Increase Percent,immature dendritic cells; MEK 7.5 ng/ml,127.1%
same,Cell Density,immature dendritic cells; MEK 15 ng/ml,2.5 ± 0.2 10^5/ml
same,Increase Percent,immature dendritic cells; MEK 15 ng/ml,133.3%
same,Cell Density,immature dendritic cells; MEK 30 ng/ml,2.9 ± 1.2 10^5/ml
same,Increase Percent,immature dendritic cells; MEK 30 ng/ml,159.2%
same,Cell Density,immature dendritic cells; MEK 60 ng/ml,4.8 ± 0.2 10^5/ml
same,Increase Percent,immature dendritic cells; MEK 60 ng/ml,246.5%
same,Cell Density,immature dendritic cells; MEK 120 ng/ml,3.1 ± 0.1 10^5/ml
same,Increase Percent,immature dendritic cells; MEK 120 ng/ml,165.5%
same,MEK concentration with greatest effect on growth and multiplication of dendritic cells,"immature dendritic cells; tested 7.5-120 ng/ml, concentration dependent",around 60 ng/ml
same,CD11C(+) %,"dendritic cells [1]; MEK 7.5 ng/ml, control 47.2",49.9%
same,CD80(+) %,"dendritic cells [1]; MEK 7.5 ng/ml, control 50.3",51.3%
same,CD11C(+) %,dendritic cells [1]; MEK 15 ng/ml,51.3%
same,CD80(+) %,dendritic cells [1]; MEK 15 ng/ml,54.1%
same,CD11C(+) %,dendritic cells [1]; MEK 30 ng/ml,55.6%
same,CD80(+) %,dendritic cells [1]; MEK 30 ng/ml,58.7%
same,CD11C(+) %,dendritic cells [1]; MEK 60 ng/ml,62.7%
same,CD80(+) %,dendritic cells [1]; MEK 60 ng/ml,64.6%
same,CD11C(+) %,dendritic cells [1]; MEK 120 ng/ml,57.3%
same,CD80(+) %,dendritic cells [1]; MEK 120 ng/ml,63.3%
same,IL-12 Level,"cultured dendritic cells; MEK 7.5 ng/ml, control 68",102 ± 1.1 pg/mL
same,IL-12 Level,cultured dendritic cells; MEK 15 ng/ml,126 ± 0.4 pg/mL
same,IL-12 Level,cultured dendritic cells; MEK 30 ng/ml,175 ± 1.6 pg/mL
same,IL-12 Level,cultured dendritic cells; MEK 60 ng/ml,256 ± 0.3 pg/mL
same,IL-12 Level,cultured dendritic cells; MEK 120 ng/ml,227 ± 1.9 pg/mL
same,cell density in micrographs versus cells not treated with MEK,dendritic cells [2],increase in cell density
same,cell processes (veils or dendrites) on the dendritic cells versus cells not treated with MEK,dendritic cells [2],increase in cell processes
